PMC6001375, “CLERK is a novel receptor kinase required for sensing of root-active CLE peptides in Arabidopsis” (Development (Cambridge, England), 2018)

Key:
CLERK gene expression = experiment: CLERK::eGFP-GUS reporter expression in root meristem; type: in vivo, Arabidopsis thaliana; conditions: 1 μM CLE26, 5 min vs 60 min (Fig. S1E); compared with VISUAL assay
Text: B overlay of PI fluorescence withGFP channel, in absence of GFPC overlay of GFP fluorescence withPI channel, in absence of PI […]
Figure S1 – Supplemental figure. (A) Phylogenetic tree of the class II LRR-RKs of Arabidopsis. (B) Col-0 wild type control root meristem, […]
5 days old, confocal microscopy. Left: GFP channel, yellow, note some background on the root edges; Right: Overlay of GFP channel with […]
PI cell wall staining (cyan). (C) CLERK-GFP fusion protein expression pattern, confocal microscopy, imaged without PI cell wall staining.
Left: GFP fluorescence, yellow; Right: Overlay of GFP fluorescence with PI channel, note increased background. (D) BAM3-CITRINE fusion […]
protein expression pattern in a clerk mutant root meristem, confocal microscopy. Left: CITRINE fluorescence, yellow; Right: Overlay of CITRINE […]
fluorescence with PI cell wall staining (cyan). Asterisks indicate protophloem sieve element cell files. (E) CLERK gene expression in response […]
to CLE26 treatment, as monitored by GFP fluorescence in the root meristem of a Col-0 seedling that carried a CLERK::eGFP-GUS transgene, […]
confocal microscopy. The same root is shown at the beginning and end of a time course. GFP fluorescence, yellow; […]

Arabidopsis root growth = conditions: ref Hazak et al., 2017; cited from earlier work
Text: The incapacity of clerk loss-of-function second site mutation to suppress the brx phenotype (unlike second site bam3 or clv2-crn loss of function) is also of interest with respect to the role of CLE peptide signaling in the spatiotemporal progression of protophloem sieve element differentiation. Resistance of clerk mutants against root-active CLE peptides as well as CLERK expression in early protophloem reiterate the key role of the protophloem in CLE sensing in the root ([Hazak et al., 2017]). Yet not all CLE peptides have an equally strong effect on root growth, which correlates with their i ...

| Sequence | CLERK downregulation in the root meristem (CLERK gene expression) | Relative strength as root-active CLE peptide (Arabidopsis root growth) |
| --- | --- | --- |
| RKVPRGPDPIHN [CLE26] | an equally strong effect was not observed in the root meristem | – |
| RRVRRGSDPIHN [CLE45] | – | strongest root-active CLE peptide |
